Measured values as given in PubChem BioAssay (NCI).
“And” between values parts separate entries of the source, which are not always exact repeats. Equal entries are not always repeated.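 Results reflect a 48-hour exposure of cells in 96-well plates to compound at five concentrations. The concentration for 50% growth inhibition is given as GI50. TGI: concentration producing complete growth inhibition.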

What was measured:
Assay in all cases: NCI-60 cell line screen, 48 h
[1] = system: HOP-92 NSCLC
[2] = system: OVCAR-3 ovarian
[3] = system: IGROV1 ovarian
[4] = system: NCI/ADR-RES ovarian
[5] = system: BT-549 breast
[6] = system: SF-295 CNS
[7] = system: MDA-MB-231 breast
[8] = system: KM12 colon
[9] = system: HOP-62 NSCLC
[10] = system: TK-10 renal

Compound	GI50 [1] [µM]	TGI [1]	GI50 [2] [µM]	TGI [2]	GI50 [3] [µM]	TGI [3]	GI50 [4] [µM]	TGI [4] [µM]	GI50 [5] [µM]	TGI [5]	GI50 [6] [µM]	TGI [6] [µM]	GI50 [7] [µM]	TGI [7] [µM]	GI50 [8] [µM]	TGI [8]	GI50 [9] [µM]	TGI [9]	GI50 [10] [µM]	TGI [10]
CN(C)CCCNC(=O)c1ccc2oc3cc4ccccc4c(=O)n3c2c1	> 50	> 50 µM	8.7	> 50 µM	18.4	> 50 µM	> 50	> 50	24.2	> 50 µM	33.7	> 50	16.5	> 50	18.5	> 50 µM	> 50	> 50 µM	10.3	> 50 µM
CCCOc1ccc(-c2nc(-c3ccc(N=Cc4ccc(N(CCOS(C)(=O)=O)CCOS(C)(=O)=O)cc4C)cc3)cs2)cc1	–	52.7 µM	–	55.4 µM	–	> 67.1 µM	–	> 84.6	–	–	–	45.5	–	86	–	42 µM	–	43.7 µM	–	41.1 µM
NC(=NCCCC1(c2ccccc2)CCCC1)Nc1ccc(Cl)cc1	1.36	2.85 µM	1.82	3.35 µM	–	–	1.77	3.34	1.74	3.27 µM	1.62	3.06	1.6	3.14	–	–	1.69	3.36 µM	1.38	2.75 µM
C[C@H](N)C(=O)N[C@@H]1[C@H]2C(=C(O)C[C@@H](O)[C@@H]2O)C(=O)O[C@]1(C)C(Cl)Cl	0.223	1.19 µM and 0.736 µM	0.454	9.36 µM and 1.94 µM	0.441	7.79 µM and 2.43 µM	–	29.1	0.315	2.57 µM and 1.53 µM	–	1.31	–	1.14	0.255	1.99 µM and 1.52 µM	0.297	1.85 µM and 1.29 µM	0.685	6.92 µM and 2.06 µM
CCNCCC1(CC)C(=O)NC(=O)NC1=O	–	> 100 µM	–	> 100 µM	–	> 100 µM	–	> 100	–	> 100 µM	–	> 100	–	> 100	–	> 100 µM	–	> 100 µM	–	> 100 µM
CNC(=O)c1c(NC(=O)c2ccc(C(F)(F)F)cc2)sc2c1CCC(=O)C2	0.256	2.15 µM	0.812	3.29 µM	0.471	4.89 µM	0.662	3.74	0.366	3.72 µM	0.821	2.97	0.529	2.51	0.668	2.46 µM	2.42	10.9 µM	0.815	21.2 µM
CC(C)CCSC1=CC(=O)c2ccccc2C1=O	1.2	2.62 µM	1.17	2.39 µM	1.06	5 µM	8.75	40.1	1.33	21.3 µM	14.7	42.2	1.36	3.5	7.36	21.5 µM	23.5	> 59.1 µM	12.4	24.8 µM
CO/[N+]([O-])=C\C(=O)N/C=C/C(=O)O	–	> 100 µM	–	> 100 µM	–	> 100 µM	–	> 100	–	> 100 µM	–	> 100	–	> 100	–	> 100 µM	–	> 100 µM	–	–
NC(=O)/C(=C\c1ccncc1)c1cccc2ccccc12	–	> 100 µM	–	> 100 µM	–	> 100 µM	–	> 100	–	> 100 µM	–	> 100	–	> 100	–	> 100 µM	–	> 100 µM	–	> 100 µM
CN[C@@H](C)C(=O)N[C@H]1CN(C(=O)CC(C)C)CC[C@H]2CC[C@@H](C(=O)NC(c3ccccc3)c3ccccc3)N2C1=O	–	> 45.4 µM	> 89.7	> 100 µM	> 100	> 100 µM	> 100	> 100	0.231	> 100 µM	> 100	> 100	0.642	5.7	> 100	> 100 µM	> 90.9	> 100 µM	> 100	> 100 µM
CCN(CC)c1ccc(C2CC(c3cc(OC)c(OC)c(OC)c3)=NN2)cc1 (stereo not given)	1.55	31.1 µM	1.88	> 100 µM	0.327	> 25.1 µM	0.44	> 100	1.03	> 22.9 µM	0.188	5.19	0.513	69.2	0.372	> 100 µM	0.456	> 21.1 µM	36	> 100 µM
COc1c2ccoc2cc2oc(=O)ccc12	–	> 100 µM	–	> 100 µM	–	> 100 µM	–	> 100	–	> 100 µM	–	> 100	–	> 100	–	–	–	> 100 µM	–	> 100 µM
Cc1ncc(C(=O)Nc2ccc(CN3CCN(C)CC3)c(C(F)(F)F)c2)cc1C#Cc1cnc(N)c2cnccc12	0.0299	0.258 µM	0.181	5.98 µM	0.0294	0.282 µM	6.68	23.9	0.841	10.7 µM	0.309	14.8	0.0289	0.165	–	11.2 µM	0.0854	1.34 µM	0.132	1.93 µM
NCCCCCCCCn1c2c(c3ccccc3c1=O)C(=O)c1ccccc1-2	2.4	8.47 µM	3.5	11.6 µM	–	–	4.29	85.1	5.18	23.3 µM	2.57	7.18	2.12	5.73	2.12	4.59 µM	2.13	4.69 µM	1.93	3.88 µM
COc1cc(-c2nc(NC(C)=O)sc2-c2ccnc(NCCNS(=O)(=O)c3ccccc3)n2)ccc1Cl	2.52	72 µM	3.09	32.6 µM	6.75	> 100 µM	> 100	> 100	3.1	> 100 µM	2.74	13.4	3.81	> 100	3.26	59.3 µM	6.78	> 100 µM	6.33	> 100 µM
N=C(N)/N=C(\N)c1c(-c2cc(O)ccc2O)nc2sccn12	18.3	55.3 µM	21.8	54.8 µM	22.5	44.1 µM	82.3	> 100	30.4	84.3 µM	> 100	> 100	18.9	39.8	34.8	> 100 µM	29.4	84.6 µM	17.9	36.4 µM
C#CCSc1n[nH]c(-c2ccco2)n1	–	> 100 µM	–	> 100 µM	–	> 100 µM	–	> 100	–	> 100 µM	–	> 100	–	> 100	–	> 100 µM	–	> 100 µM	–	> 100 µM
COc1ccc(CCN2CCCN3C2=Nc2ccccc2S3(=O)=O)cc1	0.348	13.4 µM	–	–	1.51	> 100 µM	0.3	6.8	0.923	92.4 µM	0.389	> 100	1.68	> 100	0.451	> 100 µM	0.556	> 100 µM	91	> 100 µM
O=C1/C=C/[C@@H](O)[C@@H]2C[C@@H](O)C[C@H]2/C=C/CCC[C@H](CCc2ccc(C(F)(F)F)cc2)O1	0.227	0.89 µM	0.264	0.69 µM	0.309	7.01 µM	0.191	9.58	0.355	10.7 µM	0.188	47.8	0.185	0.368	–	–	0.328	11 µM	0.449	5.47 µM
CC1=C(C(=O)Nc2ccccc2C)C(c2ccc(C3C(C(=O)Nc4ccccc4C)=C(C)NC(C)=C3C(=O)Nc3ccccc3C)cc2)C(C(=O)Nc2ccccc2C)=C(C)N1	–	20.6 µM	–	18.5 µM	–	9.5 µM	–	–	–	11.5 µM	–	17.1	–	15.2	–	4.75 µM	–	42.1 µM	–	24.2 µM
O=c1[nH]cc(/C=N\Nc2ccccc2)c(=O)[nH]1	–	> 100 µM	–	> 100 µM	–	> 100 µM	–	> 100	–	> 100 µM	–	> 100	–	> 100	–	> 100 µM	–	–	–	> 100 µM
Cc1ccc2c(c1)C(C)Cc1c(ncnc1-n1cnc3cc(C)ccc31)N2C (stereo not given)	0.301	5.21 µM	–	–	0.0633	15.7 µM	0.0374	54.3	0.0281	0.338 µM	–	–	0.0416	13.4	0.0368	12.2 µM	0.0352	15.6 µM	0.0866	21.1 µM
CCOC(CCCNCCCn1c2c(c3cc(OC)c(OC)cc3c1=O)C(=O)c1cc3c(cc1-2)OCO3)OCC	0.126	8.47 µM	7.65	14.3 µM	0.889	9.66 µM	6.5	13.7	–	–	1.45	8.6	2.65	10.1	5.93	12.1 µM	–	–	6.79	13.2 µM
O=Nc1ccc(O)c2ccccc12	3.31	9.01 µM	0.25	0.643 µM	1.51	3.29 µM	1.11	6.61	1.93	3.35 µM	2.04	4.55	2.93	20.4	2.17	6.02 µM	–	–	2.24	4.66 µM
COC(=O)C(Cc1cnc[nH]1)NC(=O)CNC(=O)CCCn1c(=O)c2c3ccccc3n(C)c2n2nnc(-c3ccccc3)c12 (stereo not given)	–	–	> 100	> 100 µM	72.5	> 100 µM	> 100	> 100	> 100	> 100 µM	> 100	> 100	> 100	> 100	> 100	> 100 µM	> 100	> 100 µM	> 100	> 100 µM
COc1c2c3ccccc3nc-2n(C)c2ccccc12	–	–	21	> 100 µM	24.3	> 100 µM	7.33	34.8	18.8	43.5 µM	20.8	> 100	7.03	40.4	8.63	> 100 µM	8.61	33.6 µM	11.7	58.5 µM
Nc1ccccc1SC(CC(=O)c1ccccc1)c1ccc([N+](=O)[O-])cc1 (stereo not given)	–	–	11.4	23.7 µM	5.69	21.6 µM	14.5	28.9	13.6	26.6 µM	16.1	30	11.8	24.1	3.86	14.9 µM	14.5	28 µM	18.6	32.7 µM
COC(=O)[C@@]1(Cc2ccccc2)[C@H]2c3cc(C(=O)N4CCCC4)n(Cc4ccc(OC)c(OC)c4)c3C[C@H]2CN1C(=O)c1ccccc1	13.3	28 µM	9.03	21 µM	–	–	11.4	35.4	8.46	16.1 µM	12.7	34.4	8.17	21.4	9.44	18.2 µM	8.34	17.8 µM	16	43.9 µM
CCN(CC)CCCC(C)Nc1cc(-c2ccc(C(F)(F)F)cc2)c(C#N)c2nc3ccccc3n12 (stereo not given)	1.66	3.43 µM	1.84	3.68 µM	–	–	1.98	4.44	1.6	3.16 µM	1.89	3.57	1.58	3.42	3.29	12.6 µM	2.2	7.18 µM	2.49	5.29 µM
